# Reference: ChEMBL document CHEMBL1201861, “Genomics of Drug Sensitity in Cancer screening data, Wellcome Trust Sanger Institute”
# Assays:
# PF-382 = experiment: cells; format: functional, cell-based, Homo sapiens; conditions: Homo sapiens, PF-382
# Description: SANGER: Inhibition of human PF-382 cell growth in a cell viability assay.
# NCI-H719 = experiment: cells; format: functional, cell-based, Homo sapiens; conditions: Homo sapiens, NCI-H719;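 further: growth inhibition of the cultured cell line, read out with a viability assay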
# Description: SANGER: Inhibition of human NCI-H719 cell growth in a cell viability assay.
# HMV-2 cell line = experiment: cells; format: functional, cell-based; conditions: Homo sapiens;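 further: growth inhibition of HMV-II cells, read out with a cell viability assay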
# Description: SANGER: Inhibition of human HMV-II cell growth in a cell viability assay.
# Daoy = experiment: cells; format: functional, cell-based; conditions: Homo sapiens;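 further: daoy cell growth inhibition, read out as cell viability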
# Description: SANGER: Inhibition of human Daoy cell growth in a cell viability assay.
# TT = experiment: cells; format: functional, cell-based; conditions: Homo sapiens
# Description: SANGER: Inhibition of human TT cell growth in a cell viability assay.
# SK-OV-3 = experiment: cells; format: functional, cell-based; conditions: Homo sapiens;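 further: growth inhibition of SK-OV-3 human cells, read out with a cell viability assay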
# Description: SANGER: Inhibition of human SK-OV-3 cell growth in a cell viability assay.
# C-4-II = experiment: SANGER: Inhibition of human C-4-II cell growth in a cell viability assay.; format: functional, cell-based
# DMS-53 = experiment: cells; format: functional, cell-based; conditions: Homo sapiens;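 further: cell viability assay measuring growth inhibition of human DMS-53 cells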
# Description: SANGER: Inhibition of human DMS-53 cell growth in a cell viability assay.
# OVCAR-8 = experiment: cells; format: functional, cell-based; conditions: Homo sapiens;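 further: growth inhibition of human OVCAR-8 cells, read out by a cell viability assay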
# Description: SANGER: Inhibition of human OVCAR-8 cell growth in a cell viability assay.
# SW1573 = experiment: cells; format: functional, cell-based; conditions: Homo sapiens;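 further: growth inhibition of SW1573 cells, read out with a cell viability assay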
# Description: SANGER: Inhibition of human SW1573 cell growth in a cell viability assay.
# CCF-STTG1 = experiment: cells; format: functional, cell-based; conditions: Homo sapiens;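 further: growth inhibition of human CCF-STTG1 cells, determined with a cell viability read-out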
# Description: SANGER: Inhibition of human CCF-STTG1 cell growth in a cell viability assay.
# Calu-1 = experiment: SANGER: Inhibition of human Calu-1 cell growth in a cell viability assay.; format: functional, cell-based
# MG-63 = experiment: cells; format: functional, cell-based; conditions: Homo sapiens;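 further: growth inhibition of human MG-63 cells, read out with a cell viability assay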
# Description: SANGER: Inhibition of human MG-63 cell growth in a cell viability assay.
# CHP-126 = experiment: cells; format: functional, cell-based, Homo sapiens; conditions: Homo sapiens, CHP-126
# Description: SANGER: Inhibition of human CHP-126 cell growth in a cell viability assay.
# CHP-212 = experiment: cells; format: functional, cell-based; conditions: Homo sapiens
# Description: SANGER: Inhibition of human CHP-212 cell growth in a cell viability assay.
# HPAF-II = experiment: cells; format: functional, cell-based; conditions: Homo sapiens;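 further: growth inhibition of HPAF-II cells, read out with a cell viability assay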
# Description: SANGER: Inhibition of human HPAF-II cell growth in a cell viability assay.
# NCI-H520 = experiment: cells; format: functional, cell-based; conditions: Homo sapiens;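 further: growth inhibition of NCI-H520 cells, measured by a cell viability assay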
# Description: SANGER: Inhibition of human NCI-H520 cell growth in a cell viability assay.
# KYSE-270 = experiment: cells; format: functional, cell-based; conditions: Homo sapiens;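 further: cell growth inhibition measured with a viability assay in the human KYSE-270 line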
# Description: SANGER: Inhibition of human KYSE-270 cell growth in a cell viability assay.
# MES-SA = experiment: cells; format: functional, cell-based; conditions: Homo sapiens;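 further: growth inhibition of human MES-SA cells, read out with a cell viability assay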
# Description: SANGER: Inhibition of human MES-SA cell growth in a cell viability assay.
# CAL-33 = experiment: cells; format: functional, cell-based; conditions: Homo sapiens;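 further: growth inhibition of CAL-33 cells, read out with a cell viability assay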
# Description: SANGER: Inhibition of human CAL-33 cell growth in a cell viability assay.
# GCT = experiment: cells; format: functional, cell-based; conditions: Homo sapiens;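 further: GCT cell line proliferation inhibition, read out with a cell viability assay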
# Description: SANGER: Inhibition of human GCT cell growth in a cell viability assay.
# NCI-H1618 = experiment: cells; format: functional, cell-based; conditions: Homo sapiens;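 further: growth inhibition of human NCI-H1618 cells, measured by a cell viability assay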
# Description: SANGER: Inhibition of human NCI-H1618 cell growth in a cell viability assay.
# H4 = experiment: cells; format: functional, cell-based; conditions: Homo sapiens
# Description: SANGER: Inhibition of human H4 cell growth in a cell viability assay.
# BCPAP = experiment: cells; format: functional, cell-based; conditions: Homo sapiens;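 further: growth inhibition of BCPAP cells, read out in a cell viability assay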
# Description: SANGER: Inhibition of human BCPAP cell growth in a cell viability assay.
# JEG-3 = experiment: cells; format: functional, cell-based; conditions: Homo sapiens;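 further: growth inhibition of human JEG-3 cells, read out with a cell viability assay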
# Description: SANGER: Inhibition of human JEG-3 cell growth in a cell viability assay.
# C32 = experiment: cells; format: functional, cell-based; conditions: Homo sapiens;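 further: cell viability assay, with IC50 reflecting inhibition of C32 cell growth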
# Description: SANGER: Inhibition of human C32 cell growth in a cell viability assay.
# CAPAN-1 = experiment: cells; format: functional, cell-based; conditions: Homo sapiens;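 further: growth suppression of CAPAN-1 cells, read out by a cell viability assay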
# Description: SANGER: Inhibition of human CAPAN-1 cell growth in a cell viability assay.
# MIA PaCa-2 = experiment: cells; format: functional, cell-based; conditions: Homo sapiens;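 further: growth inhibition of MIA PaCa-2 cells, read out with a cell viability assay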
# Description: SANGER: Inhibition of human MIA-PaCa-2 cell growth in a cell viability assay.
# 647-V = experiment: cells; format: functional, cell-based; conditions: Homo sapiens;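 further: growth inhibition of 647-V cells, read out with a cell viability assay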
# Description: SANGER: Inhibition of human 647-V cell growth in a cell viability assay.
# BHY = experiment: cells; format: functional, cell-based; conditions: Homo sapiens;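 further: cell growth inhibition read out by a viability assay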
# Description: SANGER: Inhibition of human BHY cell growth in a cell viability assay.
# NCI-H2228 = experiment: cells; format: functional, cell-based; conditions: Homo sapiens;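 further: growth inhibition of human NCI-H2228 cells, read out by a cell viability assay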
# Description: SANGER: Inhibition of human NCI-H2228 cell growth in a cell viability assay.
# VMRC-RCZ = experiment: cells; format: functional, cell-based; conditions: Homo sapiens
# Description: SANGER: Inhibition of human VMRC-RCZ cell growth in a cell viability assay.
# COLO 205 = experiment: cells; format: functional, cell-based; conditions: Homo sapiens
# Description: SANGER: Inhibition of human COLO-205 cell growth in a cell viability assay.
# HT-1376 = experiment: cells; format: functional, cell-based; conditions: Homo sapiens
# Description: SANGER: Inhibition of human HT-1376 cell growth in a cell viability assay.
# EW-7 = experiment: SANGER: Inhibition of human EW-7 cell growth in a cell viability assay.; format: functional, cell-based
# NCI-H460 = experiment: cells; format: functional, cell-based; conditions: Homo sapiens;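 further: cell viability assay scoring growth inhibition of human NCI-H460 cells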
# Description: SANGER: Inhibition of human NCI-H460 cell growth in a cell viability assay.
# RCM-1 = experiment: cells; format: functional, cell-based; conditions: Homo sapiens;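 further: growth inhibition of the RCM-1 line, determined with a cell viability readout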
# Description: SANGER: Inhibition of human RCM-1 cell growth in a cell viability assay.
# SK-MEL3 = experiment: cells; format: functional, cell-based, SK-MEL-3; conditions: Homo sapiens;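 further: growth inhibition of human SK-MEL-3 cells, read out with a cell viability assay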
# Description: SANGER: Inhibition of human SK-MEL-3 cell growth in a cell viability assay.
# NCI-H1436 = experiment: cells; format: functional, cell-based, Homo sapiens; conditions: Homo sapiens, NCI-H1436;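 further: growth suppression of human NCI-H1436 cells, determined with a cell viability readout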
# Description: SANGER: Inhibition of human NCI-H1436 cell growth in a cell viability assay.
# HT-3 = experiment: cells; format: functional, cell-based; conditions: Homo sapiens;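 further: growth inhibition measured with a cell viability readout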
# Description: SANGER: Inhibition of human HT-3 cell growth in a cell viability assay.
# NCI-H292 = experiment: cells; format: functional, cell-based; conditions: Homo sapiens;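 further: growth inhibition of NCI-H292 cells, read out with a cell viability assay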
# Description: SANGER: Inhibition of human NCI-H292 cell growth in a cell viability assay.
# PANC-08-13 = experiment: cells; format: functional, cell-based; conditions: Homo sapiens
# Description: SANGER: Inhibition of human PANC-08-13 cell growth in a cell viability assay.
# SK-LU-1 = experiment: cells; format: functional, cell-based; conditions: Homo sapiens;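 further: cell viability assay measuring growth inhibition of human SK-LU-1 cells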
# Description: SANGER: Inhibition of human SK-LU-1 cell growth in a cell viability assay.
# BC1 cell line = experiment: SANGER: Inhibition of human BC-1 cell growth in a cell viability assay.; format: functional, cell-based; conditions: Homo sapiens, BC1
# HC-1 = experiment: cells; format: functional, cell-based, Homo sapiens; conditions: Homo sapiens, HC-1;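 further: growth inhibition of HC-1 cells measured by a cell viability assay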
# Description: SANGER: Inhibition of human HC-1 cell growth in a cell viability assay.
# NCI-H358 = experiment: cells; format: functional, cell-based; conditions: Homo sapiens;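 further: growth inhibition of NCI-H358 human cells, read out with a cell viability assay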
# Description: SANGER: Inhibition of human NCI-H358 cell growth in a cell viability assay.
# SNU-475 = experiment: cells; format: functional, cell-based; conditions: Homo sapiens
# Description: SANGER: Inhibition of human SNU-475 cell growth in a cell viability assay.
# SK-MES-1 = experiment: cells; format: functional, cell-based; conditions: Homo sapiens;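 further: growth inhibition of human SK-MES-1 cells, read out with a cell viability assay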
# Description: SANGER: Inhibition of human SK-MES-1 cell growth in a cell viability assay.
# HSC-3 = experiment: cells; format: functional, cell-based; conditions: Homo sapiens
# Description: SANGER: Inhibition of human HSC-3 cell growth in a cell viability assay.
# ECC12 = experiment: cells; format: functional, cell-based; conditions: Homo sapiens
# Description: SANGER: Inhibition of human ECC12 cell growth in a cell viability assay.
# EW-12 = experiment: SANGER: Inhibition of human EW-12 cell growth in a cell viability assay.; format: functional, cell-based; conditions: Homo sapiens, EW-12
# NB14 = experiment: cells; format: functional, cell-based, Homo sapiens; conditions: Homo sapiens, NB14;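 further: growth inhibition of NB14 cells measured with a cell viability assay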
# Description: SANGER: Inhibition of human NB14 cell growth in a cell viability assay.
# NCI-H2107 = experiment: SANGER: Inhibition of human NCI-H2107 cell growth in a cell viability assay.; format: functional, cell-based
smiles,measurement,setting,value
C/C(=C\c1csc(C)n1)[C@@H]1C[C@@H]2O[C@]2(C)CCC[C@H](C)[C@H](O)[C@@H](C)C(=O)C(C)(C)[C@@H](O)CC(=O)O1 [PATUPILONE],IC50,PF-382,8.68 nM
same,IC50,NCI-H719,> 32 nM
same,IC50,HMV-2 cell line,0.394 nM
same,IC50,Daoy,< 0.125 nM
same,IC50,TT,> 32 nM
same,IC50,SK-OV-3,1.5 nM
same,IC50,C-4-II,5.37 nM
same,IC50,DMS-53,> 32 nM
same,IC50,OVCAR-8,1.06 nM
same,IC50,SW1573,14.6 nM
same,IC50,CCF-STTG1,5.83 nM
same,IC50,Calu-1,10.6 nM
same,IC50,MG-63,0.165 nM
same,IC50,CHP-126,> 32 nM
same,IC50,CHP-212,5.83 nM
same,IC50,HPAF-II,21 nM
same,IC50,NCI-H520,2.95 nM
same,IC50,KYSE-270,0.445 nM
same,IC50,MES-SA,1.98 nM
same,IC50,CAL-33,1.52 nM
same,IC50,GCT,6.61 nM
same,IC50,NCI-H1618,7.62 nM
same,IC50,H4,0.975 nM
same,IC50,BCPAP,0.581 nM
same,IC50,JEG-3,5.01 nM
same,IC50,C32,> 32 nM
same,IC50,CAPAN-1,4 nM
same,IC50,MIA PaCa-2,1.31 nM
same,IC50,647-V,2.42 nM
same,IC50,BHY,0.195 nM
same,IC50,NCI-H2228,0.473 nM
same,IC50,VMRC-RCZ,0.136 nM
same,IC50,COLO 205,0.802 nM
same,IC50,HT-1376,21.2 nM
same,IC50,EW-7,2.25 nM
same,IC50,NCI-H460,0.333 nM
same,IC50,RCM-1,15.2 nM
same,IC50,SK-MEL3,20.9 nM
same,IC50,NCI-H1436,7.83 nM
same,IC50,HT-3,15 nM
same,IC50,NCI-H292,1.42 nM
same,IC50,PANC-08-13,31.1 nM
same,IC50,SK-LU-1,0.866 nM
same,IC50,BC1 cell line,1.99 nM
same,IC50,HC-1,3.98 nM
same,IC50,NCI-H358,2.48 nM
same,IC50,SNU-475,> 32 nM
same,IC50,SK-MES-1,1.24 nM
same,IC50,HSC-3,0.786 nM
CC(C)C[C@H](NC(=O)[C@H](Cc1ccccc1)NC(=O)c1cnccn1)B(O)O [BORTEZOMIB],IC50,PF-382,1.47 nM
same,IC50,NCI-H719,> 20 nM
same,IC50,CHP-126,5.06 nM
same,IC50,NCI-H1436,17 nM
same,IC50,ECC12,1.37 nM
same,IC50,EW-12,> 20 nM
same,IC50,BC1 cell line,2.31 nM
same,IC50,HC-1,0.975 nM
same,IC50,NB14,18 nM
OC[C@H](Cc1ccccc1)Nc1nc(Oc2ccc3c(c2)CCC3)nc2c1ncn2Cc1ccc(-c2ccccc2)cc1,IC50,PF-382,> 10200 nM
same,IC50,NCI-H719,> 10200 nM
same,IC50,HMV-2 cell line,6340 nM
same,IC50,Daoy,2930 nM
same,IC50,TT,> 10200 nM
same,IC50,SK-OV-3,> 10200 nM
same,IC50,C-4-II,> 10200 nM
same,IC50,DMS-53,> 10200 nM
same,IC50,OVCAR-8,> 10200 nM
same,IC50,SW1573,> 10200 nM
same,IC50,CCF-STTG1,> 10200 nM
same,IC50,Calu-1,2610 nM
same,IC50,MG-63,4630 nM
same,IC50,CHP-126,> 10200 nM
same,IC50,CHP-212,> 10200 nM
same,IC50,HPAF-II,> 10200 nM
same,IC50,NCI-H520,> 10200 nM
same,IC50,KYSE-270,1760 nM
same,IC50,MES-SA,> 10200 nM
same,IC50,CAL-33,> 10200 nM
same,IC50,GCT,> 10200 nM
same,IC50,NCI-H1618,> 10200 nM
same,IC50,H4,1860 nM
same,IC50,BCPAP,> 10200 nM
same,IC50,JEG-3,> 10200 nM
same,IC50,C32,> 10200 nM
same,IC50,CAPAN-1,> 10200 nM
same,IC50,MIA PaCa-2,8880 nM
same,IC50,647-V,> 10200 nM
same,IC50,BHY,5130 nM
same,IC50,NCI-H2228,> 10200 nM
same,IC50,VMRC-RCZ,> 10200 nM
same,IC50,COLO 205,2290 nM
same,IC50,HT-1376,> 10200 nM
same,IC50,EW-7,> 10200 nM
same,IC50,NCI-H460,2730 nM
same,IC50,RCM-1,> 10200 nM
same,IC50,SK-MEL3,> 10200 nM
same,IC50,NCI-H1436,> 10200 nM
same,IC50,HT-3,> 10200 nM
same,IC50,NCI-H292,> 10200 nM
same,IC50,PANC-08-13,> 10200 nM
same,IC50,SK-LU-1,> 10200 nM
same,IC50,BC1 cell line,> 10200 nM
same,IC50,HC-1,> 10200 nM
same,IC50,NCI-H358,> 10200 nM
same,IC50,SNU-475,> 10200 nM
same,IC50,SK-MES-1,8440 nM
same,IC50,HSC-3,3880 nM
Cc1ccc(NC(=O)c2ccc(CN3CCN(C)CC3)cc2)cc1Nc1nccc(-c2cccnc2)n1 [IMATINIB],IC50,PF-382,> 2000 nM
same,IC50,NCI-H719,> 2000 nM
same,IC50,CHP-126,> 2000 nM
same,IC50,NCI-H1436,978 nM
same,IC50,EW-12,> 2000 nM
same,IC50,BC1 cell line,> 2000 nM
same,IC50,HC-1,> 2000 nM
same,IC50,NCI-H2107,> 2000 nM
same,IC50,NB14,> 2000 nM
